Measured values reported in patent US20170334959A1 (priority 2015, published 2017).
“Also recorded” adds a separate entry of the source. No end group written: not given here.

Legend:
[1] = biological target: human Nav1.6 (Homo sapiens, UniProt Q9UQD0); type: cell-based
[2] = biological target: human Nav1.7 (Homo sapiens, UniProt Q15858, W1161R); type: cell-based; details: read-out: Nav1.7 IC50
[3] = system: CFA-induced thermal hyperalgesia; parameters: species or system mice; details: mouse, in vivo
[4] = system: CFA-induced tactile allodynia; parameters: species or system mice; details: mouse, in vivo
[5] = system: thermal withdrawal latency; parameters: species or system mice; details: mouse, in vivo
[6] = system: acute thermal pain (hot plate latency); details: in vivo
[7] = system: acute thermal pain (tail withdrawal latency); details: in vivo
[8] = system: carrageenan-induced thermal hyperalgesia; parameters: species or system mice; details: mouse, in vivo
[9] = system: formalin-induced flinching (injury-induced pain); details: rat, in vivo

human Nav1.6, sequence (Q9UQD0 whole entry): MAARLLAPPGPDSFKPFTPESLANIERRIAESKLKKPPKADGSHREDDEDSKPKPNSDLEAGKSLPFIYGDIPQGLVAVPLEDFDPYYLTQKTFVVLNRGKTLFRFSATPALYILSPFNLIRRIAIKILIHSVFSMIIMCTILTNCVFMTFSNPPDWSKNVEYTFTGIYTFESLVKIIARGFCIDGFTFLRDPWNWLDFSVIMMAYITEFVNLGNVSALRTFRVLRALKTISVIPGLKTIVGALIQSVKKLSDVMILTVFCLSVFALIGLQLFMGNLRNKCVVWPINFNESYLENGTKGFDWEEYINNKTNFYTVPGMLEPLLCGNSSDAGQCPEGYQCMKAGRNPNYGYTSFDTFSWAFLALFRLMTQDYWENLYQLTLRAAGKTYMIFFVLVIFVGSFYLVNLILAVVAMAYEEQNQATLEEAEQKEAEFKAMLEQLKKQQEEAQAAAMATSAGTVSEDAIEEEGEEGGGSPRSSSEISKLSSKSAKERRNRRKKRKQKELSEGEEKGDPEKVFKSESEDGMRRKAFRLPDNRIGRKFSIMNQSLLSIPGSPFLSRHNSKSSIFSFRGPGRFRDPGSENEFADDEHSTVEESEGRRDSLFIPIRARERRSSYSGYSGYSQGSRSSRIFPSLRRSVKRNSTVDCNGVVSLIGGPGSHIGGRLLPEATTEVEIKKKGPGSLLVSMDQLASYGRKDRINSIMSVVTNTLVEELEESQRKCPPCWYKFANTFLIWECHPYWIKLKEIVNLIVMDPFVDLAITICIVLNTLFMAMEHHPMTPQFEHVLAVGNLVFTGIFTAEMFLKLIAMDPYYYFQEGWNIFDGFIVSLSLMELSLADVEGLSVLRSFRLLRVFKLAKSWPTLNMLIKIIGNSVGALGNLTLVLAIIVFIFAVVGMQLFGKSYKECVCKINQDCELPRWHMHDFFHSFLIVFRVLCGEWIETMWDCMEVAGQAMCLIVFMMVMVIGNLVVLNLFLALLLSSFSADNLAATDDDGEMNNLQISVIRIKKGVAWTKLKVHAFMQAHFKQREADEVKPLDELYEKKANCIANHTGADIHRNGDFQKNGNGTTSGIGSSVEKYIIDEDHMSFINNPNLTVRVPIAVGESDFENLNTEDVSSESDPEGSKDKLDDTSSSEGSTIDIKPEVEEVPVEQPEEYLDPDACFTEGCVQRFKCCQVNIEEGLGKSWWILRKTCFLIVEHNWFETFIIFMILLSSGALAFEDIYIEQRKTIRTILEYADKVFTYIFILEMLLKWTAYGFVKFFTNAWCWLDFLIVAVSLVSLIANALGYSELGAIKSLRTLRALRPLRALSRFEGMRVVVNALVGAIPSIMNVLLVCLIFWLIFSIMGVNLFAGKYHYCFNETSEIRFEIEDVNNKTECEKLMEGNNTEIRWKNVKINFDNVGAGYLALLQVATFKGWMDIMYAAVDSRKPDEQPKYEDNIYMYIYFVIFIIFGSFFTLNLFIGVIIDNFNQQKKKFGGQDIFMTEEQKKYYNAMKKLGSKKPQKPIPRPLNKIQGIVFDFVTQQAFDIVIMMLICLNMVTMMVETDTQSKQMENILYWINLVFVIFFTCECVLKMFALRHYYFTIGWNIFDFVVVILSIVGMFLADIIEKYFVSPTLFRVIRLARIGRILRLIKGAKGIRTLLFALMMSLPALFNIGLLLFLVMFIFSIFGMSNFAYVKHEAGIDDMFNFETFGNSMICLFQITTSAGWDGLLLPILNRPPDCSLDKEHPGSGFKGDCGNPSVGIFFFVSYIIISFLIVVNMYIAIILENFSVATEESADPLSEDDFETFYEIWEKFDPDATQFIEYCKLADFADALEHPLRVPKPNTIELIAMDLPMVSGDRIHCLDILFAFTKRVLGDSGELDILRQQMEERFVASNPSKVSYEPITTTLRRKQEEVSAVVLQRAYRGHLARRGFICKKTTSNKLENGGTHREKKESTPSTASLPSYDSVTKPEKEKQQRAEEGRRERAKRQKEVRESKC

| Substance | selectivity for Nav1.7 compared to recombinant Protoxin-II [1] | IC50 [2] [nM] | further results |
| --- | --- | --- | --- |
| Ac-QCQKWMQTCDAERKCCEGFSCTLWCKKKLW-NH2 [(-GP) N-Ac-NV1D2974-NH2] | improved selectivity | – | – |
| Ac-QCQKWMQTCDRERKCCEGFVCTLWCRKKLW-NH2 [(-GP) N-Ac-NV1D3034-NH2] | improved selectivity | – | – |
| GPACQKWMQTCDANRKCCEGFSCRLWCKKKLW-OH (cysteine pairing not given here) [NV1D3587] | improved selectivity | – | – |
| GPACQKWMQTCDRNRKCCEGFVCTLWCRKKLW-OH (cysteine pairing not given here) [NV1D3541] | improved selectivity | – | – |
| GPCCNCSSKWCRDHSRCCGRGSAPAPAPAPAPAPAPAPAPAPGSQCQKWMQTCDAERKCCEGFVCRLWCKKKLW [NV1D3260] | – | 57.6 | – |
| GPCCNCSSKWCRDHSRCCGRGSAPAPAPAPAPAPAPAPAPAPGSQCQKWMQTCDRERKCCEGFVCTLWCRKKLW [NV1D3793] | – | 64.6 | – |
| GPCCNCSSKWCRDHSRCCGRGSAPAPAPAPAPGSQCQKWMQTCDAERKCCEGFVCRLWCKKKLW [NV1D3256] | – | 55.7 | – |
| GPCCNCSSKWCRDHSRCCGRGSGGGGSAPAPAPAPAPAPAPAPAPAPGGGGSGSQCQKWMQTCDRERKCCEGFVCTLWCRKKLW [NV1D3830] | – | 88.6 | – |
| GPCCNCSSKWCRDHSRCCGSAPAPAPAPAPAPAPAPAPAPGSQCQKWMQTCDAERKCCEGFVCRLWCKKKLW [NV1D3262] | – | 89.2 | – |
| GPCCNCSSKWCRDHSRCCGSAPAPAPAPAPAPAPAPAPAPGSQCQKWMQTCDRERKCCEGFVCTLWCRKKLW [NV1D3795] | – | 100 | – |
| GPCCNCSSKWCRDHSRCCGSAPAPAPAPAPGSQCQKWMQTCDRERKCCEGFVCTLWCRKKLW [NV1D3796] | – | 110 | – |
| GPCRTIGPSVCAPAPAPAPAPAPAPAPAPAPQCQKWMQTCDRERKCCEGFVCTLWCRKKLW [NV1D3832] | – | 88.4 | – |
| GPGWCGDPGATCGKLRLYCCSGFCDAYTKTCKDKSSAGGGGSAPAPAPAPAPAPAPAPAPAPAPAPAPAPAPGGGGSQCQKWMQTCDRERKCCEGFVCTLWCRKKLW [NV1D3824] | – | 110 | – |
| GPGWCGDPGATCGKLRLYCCSGFCDSYTKTCKDKSSAGGGGSAPAPAPAPAPAPAPAPAPAPAPAPAPAPAPGGGGSQCQKWMQTCDRERKCCEGFVCTLWCRKKLW [NV1D3822] | – | 74.2 | – |
| GPQCQDWMQTCDRERDCCEGFVCTLWCRKKLW-OH (cysteine pairing not given here) [NV1D3379] | – | 31.6 | – |
| GPQCQKWMQSCDRERKCCEGFVCTLWCRKKLW-OH (cysteine pairing not given here) [NV1D3359] | improved selectivity | – | – |
| GPQCQKWMQTCDAERKCCEGFSCTLWCKKKLW-NH2 [NV1D2974-NH2] | improved selectivity | – | – |
| GPQCQKWMQTCDAERKCCEGFSCTLWCKKKLW-OH (cysteine pairing not given here) [NV1D2974] | improved selectivity | – | – |
| GPQCQKWMQTCDAERKCCEGFVCRLWCKKKLW-NH2 [NV1D2775-NH2] | improved selectivity | – | – |
| GPQCQKWMQTCDAERKCCEGFVCRLWCKKKLW-OH (cysteine pairing not given here) [NV1D2775] | improved selectivity | – | efficacy in the CFA model / reversal of CFA-induced thermal hyperalgesia [3]: strong efficacy; thermal latencies in the CFA model [3]: close to the cut-off; time at which anti-hyperalgesic effect was first seen post-pump implantation [3]: ≤ 4 h; time by which thermal latency returned to the control level post pump implantation [3]: ≤ 48 h; time of maximum effect, thermal test [3]: 8 h; reversal of CFA-induced tactile allodynia [4]: reversed; time by which tactile threshold returned to the control level post pump implantation [4]: ≤ 48 h; time of maximum effect, tactile test [4]: 8 h; efficacy in the hot plate test [5]: strong, dose-dependent efficacy; also recorded: significant analgesia; hotplate latencies at 50 and 55° C. [5]: near cut-off; hotplate thermal latency compared to the PBS control [5]: modest yet significant increase; efficacy in the hot plate test [6]: significant efficacy; efficacy in the tail flick test [7]: significant efficacy; analgesia in the carrageenan study (thermal withdrawal latency) [8]: significant analgesia; protection from carrageenan-induced thermal hyperalgesia [8]: fully protected; efficacy in the formalin test (flinches) [9]: significant efficacy |
| GPQCQKWMQTCDAERKCCEGFVCRLWCKKKLWGSAPAPAPAPAPAPAPAPAPAPGSCCNCSSKWCRDHSRCCGR [NV1D3259] | – | 54.9 | – |
| GPQCQKWMQTCDARRKCCEGFVCRLWCKKKLW-OH (cysteine pairing not given here) [NV1D3006] | improved selectivity | – | – |

| Substance | selectivity for Nav1.7 compared to recombinant Protoxin-II [1] | IC50 [2] [nM] | further results |
| --- | --- | --- | --- |
| GPQCQKWMQTCDRERKCCEGFVCTLWCRKKLW-NH2 [NV1D3034-NH2] | improved selectivity | – | – |
| GPQCQKWMQTCDRERKCCEGFVCTLWCRKKLW-NH-butyl [NV1D3034-NH-butyl] | improved selectivity | – | – |
| GPQCQKWMQTCDRERKCCEGFVCTLWCRKKLW-NH-methyl [NV1D3034-NH-methyl] | improved selectivity | – | efficacy in the CFA model / reversal of CFA-induced thermal hyperalgesia [3]: readily reversed; Thermal MPE % ([3]; sc): 49 ± 17% |
| GPQCQKWMQTCDRERKCCEGFVCTLWCRKKLW-OH (cysteine pairing not given here) [NV1D3034] | – | – | reversal of CFA-induced thermal hyperalgesia ([3]; sc): completely reversed; efficacy in the hot plate test [6]: significant efficacy; efficacy in the tail flick test [7]: significant efficacy; efficacy in the formalin test (flinches) [9]: significant efficacy |
| GPQCQKWMQTCDRERKCCEGFVCTLWCRKKLWGGGGSAPAPAPAPAPAPAPAPAPAPAPAPAPAPAPGGGGSGWCGDPGATCGKLRLYCCSGFCDAYTKTCKDKSSA [NV1D3825] | – | 194 | – |
| GPQCQKWMQTCDRERKCCEGFVCTLWCRKKLWGSAPAPAPAPAPAPAPAPAPAPGSCCNCSSKWCRDHSRCC [NV1D3797] | – | 91.1 | – |
| GPQCQKWMQTCDRERKCCEGFVCTLWCRKKLWGSAPAPAPAPAPAPAPAPAPAPGSCCNCSSKWCRDHSRCCGR [NV1D3798] | – | 94.5 | – |
| GPQCQKWMQTCDRERKCCEGFVCTLWCRKKLWGSAPAPAPAPAPGSCCNCSSKWCRDHSRCC [NV1D3799] | – | 50.6 | – |
| GPQCQKWMQTCDRERKCCEGFVCTLWCRKKLWGSAPAPAPAPAPGSCCNCSSKWCRDHSRCCGR [NV1D3800] | – | 60.9 | – |
| GPQCQKWMQTCDRERKCCEGFVCTLWCRKKLWGSGGGGSAPAPAPAPAPAPAPAPAPAPGGGGSGSCCNCSSKWCRDHSRCC [NV1D3829] | – | 122 | – |
| GPQCQKWMQTCDRERKCCEGFVCTLWCRKKLWGSGGGGSAPAPAPAPAPAPAPAPAPAPGGGGSGSCCNCSSKWCRDHSRCCGR [NV1D3828] | – | 87.5 | – |
| GPQCQKWMQTCDRERKCCQGFVCTLWCRKKLW-OH (cysteine pairing not given here) [NV1D3388] | improved selectivity | – | – |
| GPQCQKWMQTCDRNRKCCEGFVCTLWCRKKLW-OH (cysteine pairing not given here) [NV1D3044] | improved selectivity | – | – |
| GPQCQKWMQTCDRTRKCCEGFVCTLWCRKKLW-NH2 [NV1D3368-NH2] | improved selectivity | – | efficacy in the CFA model / reversal of CFA-induced thermal hyperalgesia [3]: readily reversed |
| GPQCQKWMQTCDRTRKCCEGFVCTLWCRKKLW-OH (cysteine pairing not given here) [NV1D3368] | improved selectivity | – | reversal of CFA-induced thermal hyperalgesia ([3]; sc): fully reversed |
| GPRCQKWMQTCDAERKCCEGFVCRLWCKKKLW-OH (cysteine pairing not given here) [NV1D2772] | improved selectivity | – | – |
| GPSCQKWMQTCDAERKCCEGFVCRLWCKKKLW-OH (cysteine pairing not given here) [NV1D2773] | improved selectivity | – | – |
| GPSHSNTQTLAKAPEHTGAPAPAPAPAPAPAPAPAPAPQCQKWMQTCDRERKCCEGFVCTLWCRKKLW [NV1D3774] | – | 88.6 | – |
| GPYCQKWMQTCDANRKCCEGFSCRLWCKKKLW-NH2 [NV1D3586-NH2] | improved selectivity | – | – |
| GPYCQKWMQTCDANRKCCEGFSCRLWCKKKLW-OH (cysteine pairing not given here) [NV1D3586] | improved selectivity | – | – |
| GPYCQKWMQTCDSERKCCEGMVCRLWCKKKLL-OH (cysteine pairing not given here) [compound 63955918] | – | – | efficacy in the hot plate test [6]: potent and prolonged analgesia; efficacy in the tail flick test [7]: potent and prolonged analgesia; efficacy in the formalin test (flinches) [9]: less flinches |
| GPYCQKWMWTCDSERKCCEGMVCRLWCKKKLW-COOH [NV1D12, reference compound] | – | – | selectivity, ratio IC50(Nav1.6)/IC50(Nav1.7) in QPatch [1]: about 28 fold |
